Assay results from patent publication US20230019280A1, “SUBSTITUTED ISOINDOLONYL 2,2'-BIP[…], ANALOGUES THEREOF, AND METHODS USING SAME” (priority 2019, published 2023).
Where two headings read alike, the source gives them in different places.

Tested on: HBsAg
Experiment: HBsAg assay (inhibition of HBsAg in HepG2.2.15 cells)
Format: cell-based, hepatitis B virus
Details: supernatant HBsAg by CLIA at day 6 after exposure of compounds
Description: Inhibition of HBsAg was determined in HepG2.2.15 cells. Cells were maintained in culture medium containing 10% fetal calf serum, […], Glutamine, penicillin/streptomycin. Cells were seeded in 96-well collagen-coated plate at a density of 30,000 cells/well. Serially diluted compounds were added to cells next day at the final DMSO concentration of 0.5%. Cells were incubated with compounds for 2-3 days, after which medium was removed. Fresh medium containing compounds was added to cells for additional 3-4 days. At day 6 after exposure of compounds, supernatant was collected, the HBsAg immunoassay (microplate-based chemiluminescence immunoassay kits, CLIA, Autobio Diagnosics Co., Zhengzhou, China, Catalog #CL0310-2) was used to determine the level of HBsAg according to manufactory instruction. Dose-response curves were generated and the EC50 value (effective concentrations that achieved 50% inhibitory effect) were determined using XLfit software. In addition, cells were seeded at a density of 5,000 cells/well for determination of cell viability in the presence and absence of compounds by using CellTiter-Glo reagent (Promega).

[1] = Hepatitis B virus, HepG2.2.15, 144 h, read-out: sAg EC50, HepG2.2.15 cells
[2] = read-out: sAg EC50, HepG2.2.15 cells

Row | Structure (SMILES) | EC50 [1] [nM] | EC50 [2] [nM]
1 | COc1cc2c(cc1OC)C(=O)N(c1ccnc(-c3ncccn3)n1)C2 [Example 62, 2-([2,2′-Bipyrimidin]-4-yl)-5,6-dimethoxyisoindolin-1-one] | 130 | 
2 | CCC1c2cc(OC)c(OC)cc2C(=O)N1c1nc(-c2ncccn2)nc(C)c1C (stereo not drawn) [Example 24, 2-(5,6-Dimethyl-[2,2′-bipyrimidin]-4-yl)-3-ethyl-5,6-dimethoxyisoindolin-1-one] | 10000 | 
3 | COc1cc2c(cc1OC)C(c1ccccc1)N(c1nc(-c3ncccn3)ncc1F)C2=O (single isomer, unassigned) [Example 70, 2-(5-Fluoro-[2,2′-bipyrimidin]-4-yl)-5,6-dimethoxy-3-phenylisoindolin-1-one] |  | 1
4 | CCC1c2cc(OC)c(OC)cc2C(=O)N1c1cc(-c2ncccn2)ncn1 (stereo not drawn) [Example 37, 2-([2,4′-Bipyrimidin]-6′-yl)-3-ethyl-5,6-dimethoxyisoindolin-1-one] | 290 | 
5 | CCC1c2cc(OC)c(F)cc2C(=O)N1c1ccnc(-c2ncccn2)n1 (single isomer, unassigned) [Example 52, 2-([2,2′-Bipyrimidin]-4-yl)-3-ethyl-6-fluoro-5-methoxyisoindolin-1-one] |  | 400
6 | COc1cc2c(cc1OC)C(CCC(F)(F)F)N(c1ccnc(-c3ncccn3)n1)C2=O (single isomer, unassigned) [Example 16, 2-([2,2′-Bipyrimidin]-4-yl)-5,6-dimethoxy-3-(3,3,3-trifluoropropyl)isoindolin-1-one] |  | 30000
7 | COc1cc2c(cc1OC)C(CC(C)C)N(c1ccnc(-c3ncccn3)n1)C2=O (stereo not drawn) [Example 39, 2-([2,2′-Bipyrimidin]-4-yl)-3-isobutyl-5,6-dimethoxyisoindolin-1-one] | 2 | 
8 | COc1cc2c(cc1OC)C(C1CCC1)N(c1ccnc(-c3ncccn3)n1)C2=O (stereo not drawn) [Example 28, 2-([2,2′-Bipyrimidin]-4-yl)-3-cyclobutyl-5,6-dimethoxyisoindolin-1-one] | 2 | 
9 | COc1cc2c(cc1OC)C(C1CCOCC1)N(c1ccnc(-c3ncccn3)n1)C2=O (stereo not drawn) [Example 29, 2-([2,2′-Bipyrimidin]-4-yl)-5,6-dimethoxy-3-(tetrahydro-2H-pyran-4-yl)isoindolin-1-one] | 30 | 
10 | O=C1c2cc(F)cc(F)c2CCN1c1ccnc(-c2ncccn2)n1 [Example 64, 2-([2,2′-Bipyrimidin]-4-yl)-5,7-difluoro-3,4-dihydroisoquinolin-1(2H)-one] | 5000 | 
11 | COc1cccc(C2c3cc(OC)c(OC)cc3C(=O)N2c2ccnc(-c3ncccn3)n2)c1 (single isomer, unassigned) [Example 13, 2-([2,2′-Bipyrimidin]-4-yl)-5,6-dimethoxy-3-(3-methoxyphenyl)isoindolin-1-one] |  | 1000
12 | CCC1c2cc(F)c(OC)cc2C(=O)N1c1nc(-c2ncccn2)ncc1F (single isomer, unassigned) [Example 74, 3-Ethyl-5-fluoro-2-(5-fluoro-[2,2′-bipyrimidin]-4-yl)-6-methoxyisoindolin-1-one] |  | 300
13 | COc1cc2c(cc1OC)C(c1ccc(C)nc1)N(c1ccnc(-c3ncccn3)n1)C2=O (single isomer, unassigned) [Example 19, 2-([2,2′-Bipyrimidin]-4-yl)-5,6-dimethoxy-3-(6-methylpyridin-3-yl)isoindolin-1-one] |  | 390
14 | COc1cc2c(cc1OC)C(c1ccccc1)N(c1nc(-c3ncccn3)ncc1F)C2=O (single isomer, unassigned) [Example 71, 2-(5-Fluoro-[2,2′-bipyrimidin]-4-yl)-5,6-dimethoxy-3-phenylisoindolin-1-one] |  | 1000
15 | COc1cc2c(cc1F)C1(CC1)N(c1ccnc(-c3ncccn3)n1)C2=O [Example 47, 2′-([2,2′-Bipyrimidin]-4-yl)-6′-fluoro-5′-methoxyspiro[cyclopropane-1,1′-isoindolin]-3′-one] | 120 | 
16 | COCCC1c2cc(F)c(OC)cc2C(=O)N1c1ccnc(-c2ncccn2)n1 (single isomer, unassigned) [Example 54, 2-([2,2′-Bipyrimidin]-4-yl)-5-fluoro-6-methoxy-3-(2-methoxyethyl)isoindolin-1-one] |  | 430
17 | CCC1c2cc(OC)c(OC)cc2C(=O)N1c1cc(C)nc(-c2ncccn2)n1 (stereo not drawn) [Example 36, 3-Ethyl-5,6-dimethoxy-2-(6-methyl-[2,2′-bipyrimidin]-4-yl)isoindolin-1-one] | 10000 | 
18 | CCC1c2cc(F)c(OC)cc2C(=O)N1c1ccnc(-c2ncccn2)n1 (stereo not drawn) [Example 48, 2-([2,2′-Bipyrimidin]-4-yl)-3-ethyl-5-fluoro-6-methoxyisoindolin-1-one] | 20 | 

Row | Structure (SMILES) | EC50 [1] [nM] | EC50 [2] [nM]
19 | CCOc1cc2c(cc1F)C(CC)N(c1nc(-c3ncccn3)ncc1F)C2=O (single isomer, unassigned) [Example 56, 6-Ethoxy-3-ethyl-5-fluoro-2-(5-fluoro-[2,2′-bipyrimidin]-4-yl)isoindolin-1-one] | 70 | 
20 | CCC1c2cc(OC)c(OC)cc2C(=O)N1c1ccnc(-c2ncccn2)n1 (single isomer, unassigned) [Example 2, 2-([2,2′-Bipyrimidin]-4-yl)-3-ethyl-5,6-dimethoxyisoindolin-1-one] |  | 13
21 | CCC1c2cc(OC)c(OC)cc2C(=O)N1c1nc(-c2ncccn2)ncc1F (single isomer, unassigned) [Example 67, 3-Ethyl-2-(5-fluoro-[2,2′-bipyrimidin]-4-yl)-5,6-dimethoxyisoindolin-1-one] |  | 10000
22 | COc1cc2c(cc1OC)CN(c1ccnc(-c3ncccn3)n1)C(=O)C2 [Example 65, 2-([2,2′-Bipyrimidin]-4-yl)-6,7-dimethoxy-1,4-dihydroisoquinolin-3(2H)-one] | 5000 | 
23 | CCC1c2cc(F)c(OC)cc2C(=O)N1c1ccnc(-c2ncccn2)n1 (single isomer, unassigned) [Example 50, 3-Ethyl-5-fluoro-6-methoxy-2-(2-pyrimidin-2-ylpyrimidin-4-yl)isoindolin-1-one] |  | 480
24 | CCC1c2cc(OC)c(OC)cc2C(=O)N1c1ccnc(-c2ncccn2)c1 (single isomer, unassigned) [Example 33, 3-Ethyl-5,6-dimethoxy-2-(2-(pyrimidin-2-yl)pyridin-4-yl)isoindolin-1-one] |  | 7
25 | CCC1c2cc(OC)c(OC)cc2C(=O)N1c1cncc(-c2ncccn2)n1 (stereo not drawn) [Example 35, 3-Ethyl-5,6-dimethoxy-2-(6-(pyrimidin-2-yl)pyrazin-2-yl)isoindolin-1-one] | 1000 | 
26 | COc1cc2c(cc1OC)C(c1ccc(C)nc1)N(c1ccnc(-c3ncccn3)n1)C2=O (single isomer, unassigned) [Example 18, 2-([2,2′-Bipyrimidin]-4-yl)-5,6-dimethoxy-3-(6-methylpyridin-3-yl)isoindolin-1-one] |  | 10
27 | COc1cc2c(cc1OC)C(CCC(F)(F)F)N(c1ccnc(-c3ncccn3)n1)C2=O (single isomer, unassigned) [Example 17, 2-([2,2′-Bipyrimidin]-4-yl)-5,6-dimethoxy-3-(3,3,3-trifluoropropyl)isoindolin-1-one] |  | 20
28 | COc1cc2c(cc1OC)C(c1ccccc1)N(c1ccnc(-c3ncccn3)n1)C2=O (single isomer, unassigned) [Example 44, 2-([2,2′-Bipyrimidin]-4-yl)-5,6-dimethoxy-3-phenylisoindolin-1-one] |  | 160
29 | COc1ccc(C2c3cc(OC)c(OC)cc3C(=O)N2c2ccnc(-c3ncccn3)n2)cc1 (single isomer, unassigned) [Example 11, 2-([2,2′-Bipyrimidin]-4-yl)-5,6-dimethoxy-3-(4-methoxyphenyl)isoindolin-1-one] |  | 4000
30 | COc1cc2c(cc1OC)C(c1ccccn1)N(c1ccnc(-c3ncccn3)n1)C2=O (single isomer, unassigned) [Example 23, 2-([2,2′-Bipyrimidin]-4-yl)-5,6-dimethoxy-3-(pyridin-2-yl)isoindolin-1-one] |  | 500
31 | COc1cc2c(cc1OC)C(c1ccccc1)N(c1ccnc(-c3ncccn3)n1)C2=O (single isomer, unassigned) [Example 43, 2-([2,2′-Bipyrimidin]-4-yl)-5,6-dimethoxy-3-phenylisoindolin-1-one] |  | 1
32 | CCC1c2cc(OC)c(Cl)cc2C(=O)N1c1ccnc(-c2ncccn2)n1 (single isomer, unassigned) [Example 6, 2-([2,2′-Bipyrimidin]-4-yl)-6-chloro-3-ethyl-5-methoxyisoindolin-1-one] |  | 14
33 | CCC1c2c(F)cc(Cl)cc2C(=O)N1c1ccnc(-c2ncccn2)n1 (single isomer, unassigned) [Example 9, 2-([2,2′-Bipyrimidin]-4-yl)-6-chloro-3-ethyl-4-fluoroisoindolin-1-one] |  | 5000
34 | CCC1c2cc(F)c(F)cc2C(=O)N1c1cnc(-c2ncccn2)nc1 (single isomer, unassigned) [Example 59, 2-([2,2′-Bipyrimidin]-5-yl)-3-ethyl-5,6-difluoroisoindolin-1-one] | 10000 | 
35 | CCC1c2cc(OC)c(C)cc2C(=O)N1c1ccnc(-c2ncccn2)n1 (single isomer, unassigned) [Example 4, 2-([2,2′-Bipyrimidin]-4-yl)-3-ethyl-5-methoxy-6-methylisoindolin-1-one] |  | 8
36 | CCC1c2cc(OC)c(OC)cc2C(=O)N1c1ccnc(-c2ncccn2)n1 (stereo not drawn) [Example 1, 2-([2,2′-Bipyrimidin]-4-yl)-3-ethyl-5,6-dimethoxyisoindolin-1-one] | 27 | 
